SMILES strings stand for the structures.

The test system of experiment [1] is wild type Plasmodium falciparum. The experiment is described as follows: In vitro red blood cell culture infected with wild type Plasmodium falciparum, percent RBCs infected. In kind it is cell-based. As to conditions: for effectiveness compared with chloroquine (text to Table 2): 2.0-0.02 μM. On the procedure: The in vitro method used to test the anti-malarial effectiveness of various s-triazines was adapted from Trager, 1994, Methods in Cell Biology Vol 45:7-26.
(§1) Briefly, a red blood cell suspension at a malarial (wild type Plasmodium falciparum) infection rate of approximately 1% was added to each well of a 96 well micro titer plate. The test compound was added to the cultures at final concentrations of 2.0, 0.2 or 0.02 μM. and incubated in an environment of 5% CO2, 5% O2 and 90% N2 at 37° C. Every 24 hrs the dish was removed, 100 μl of spent medium removed and 100 μl of fresh, compound containing-medium was added back to each well. This procedure was repeated daily.
(§2) At 48 hrs and again at 96 hrs, blood smears were made from each well and 500 Red Blood Cells (RBCs) were counted and inspected for malarial infection. The percent infection rate was then determined for each experimental condition tested.
(§3) Malaria parasite (P. falciparum) was grown in culture as described previously. At 48 hours and 96 hours of treatment, red blood cells were taken from culture and the percent red blood cells infected with the parasite was determined by microscopic examination.
The data in Table 2 represent percent red blood cell (RBC) infection rate at 48 hrs of treatment with the antimalarial test compound. Control cultures were 35% RBC infected.

In a further experiment the test system is P. falciparum. The experiment is described as follows: Isobologram analysis of chloroquine and atrazine in vitro against P. falciparum. In kind it is cell-based, Plasmodium falciparum. To be noted: each drug alone at its ID50, or combinations of the stated fractions of each ID50. The protocol:
Drugs can interact in additive, antagonistic or synergistic manner. See Berenbaum, J. Infect. Dis., 137:122-130, 1978. The isobologram assay permits determination of the type of interaction that occurs between drugs of interest. The ID50, or […], for both drugs was calculated.
Next, the drugs were tested in vitro at the ID50 for each drug alone and various combinations of drugs as described below:
These combinations of drugs were tested in vitro against P. falciparum and the data analyzed.

In experiment [2] the test system is multi-drug resistant P. falciparum (MDR). The experiment is described as follows: In vitro RBC culture, multi-drug resistant P. falciparum. In kind it is cell-based, Plasmodium falciparum. As to conditions: multidrug-resistant, 96 hrs of treatment, 0.02 μM; control 25. The protocol: as §1, §2, §3
In experiment [3] the test system is chloroquine resistant P. falciparum (Clq res). Kind of experiment: In vitro RBC culture, chloroquine resistant P. falciparum. In kind it is cell-based, Plasmodium falciparum.
Experiment [4] concerns yeast transfected but not sensitive to antifolate antimalarials (folate insensitive). The experiment is described as follows: Yeast assay for antifolate activity, folate insensitive yeast. In kind it is cell-based, Saccharomyces cerevisiae. As to conditions: 48 hours of treatment. The protocol: (§4) We have established a in vitro yeast assay model for determining sensitivity to antifolate anti-malarials.
(§5) Saccharomyces cerevisiae was grown in culture and after 48 hours of treatment as described below the growth of the yeast was determined. Control (i.e., yeast grown with no treatment) is considered to be 100% growth. Drug treatment was then related to the controls as a percent of control growth. S. cerevisiae types tested included wild type yeast, yeast made sensitive to antifolate antimalarials by transfecting yeast with malarial dihydrofolate reductase (folate sensitive or folate sen), yeast transfected but not sensitive to antifolate antimalarials (folate insensitive or folate insen).

Experiment [5] deals with yeast transfected with malarial dihydrofolate reductase (folate sensitive). Kind of experiment: Yeast assay for antifolate activity, folate sensitive yeast. In kind it is cell-based, Saccharomyces cerevisiae. As to conditions: 48 hours of treatment. On the procedure: as §4, §5
In the next experiment the test system is Plasmodium berghi. Kind of experiment: In vivo evaluation against Plasmodium berghi in Lewis rats, intravenous treatment. As to conditions: 20 mg/kg I.V., 24 and 48 hrs. Also noted: species or system rat. The protocol: In vivo testing was performed using juvenile female Lewis rats. Rats were inoculated intraperitoneally with 30,000,000 Plasmodium berghi infected RBCs. Rats were bled daily from the tail vein and, when parasitemia reached 1-3%, therapy was begun.
Blood smears were obtained at 24 and 48 hrs. The percent RBCs infected was then calculated after counting and inspecting 500 RBCs for each rat.

Experiment [6] concerns mefloquine resistant P. falciparum (Mfl res). Kind of experiment: In vitro RBC culture, mefloquine resistant P. falciparum. In kind it is cell-based, Plasmodium falciparum. The protocol:
as §1, §2
The procedure set forth in Example 1 is utilized for testing the effectiveness of mefloquine and atrazine against mefloquine-resistant P. falciparum.
as §3

For a further experiment, the system named is P. berghei. The experiment is described as follows: In vivo efficacy against P. berghei in rats, single oral dose. More on the design: species or system rat. To be noted: single oral dose (Chloroquine 20 mg/kg, Atrazine 100 mg/kg) 4 h after inoculation. On the procedure:
Rats weighing 60-70 gms were inoculated with P. berghei infected rat red blood cells. […] Blood was obtained 4 days and 11 days later and parasitemia assessed using light microscopy of blood smears. The percent parasitemia (i.e., the presence of parasites in the blood) was then determined for each group and the data are summarized in the table below: […]

The test system of experiment [7] is antifolate-resistant P. falciparum. The experiment is described as follows: In vitro RBC culture, antifolate-resistant P. falciparum. As to conditions: Example 4, 48 hrs or 96 hrs after treatment. Format: cell-based, Plasmodium falciparum. The protocol:
as §1, §2
The procedure set forth in Example 1 is utilized for testing the effectiveness of triazine and atrazine against antifolate-resistant P. falciparum.

[8] abbreviates: 48 hrs of treatment, 0.02 μM, control 35%.
[9] abbreviates: 48 hrs of treatment, 0.2 μM, control 35%.
Setting [10] is: 48 hrs of treatment, 2.0 μM, control 35%.

As to `CCNc1nc(NC(C)C)nc(SC)n1` [ametryn, 2-ethylamino-4-isopropylamino-6-thiomethoxy-s-triazine], the results for the “Red Blood Cell Infection Rate” value in experiment [1] (setting [8]), in experiment [1] (setting [9]) and in experiment [1] (setting [10]) were 20%, 11% and 10%, respectively. The “effectiveness compared with chloroquine (text to Table 2)” value (“effectiveness compared with chloroquine” below) in experiment [1] (48 hrs of treatment) is “less effective”.
Consider `CCN(CC)CCCC(C)Nc1ccnc2cc(Cl)ccc12` (centres unmarked) [chloroquine, reference compound], for which, in the experiment with P. falciparum, the “Percent Growth Inhibition” value worked out at 60%. In addition, the “Red Blood Cell Infection Rate” value in experiment [1] (setting [8]) is recorded as 4%; in experiment [1] (setting [9]), 0%; in experiment [1] (setting [10]) it was 0%; in experiment [1] (wild type, 96 hrs of treatment, 0.02 μM, control 18), 3%; in experiment [2], 22%; in experiment [3] (chloroquine-resistant, 96 hrs of treatment, 0.02 μM, control 28), 28%. In addition, the “Red Blood Cell Infection Rate” value in experiment [6] (mefloquine-resistant, 96 hrs of treatment, 0.02 μM, control 24) worked out at 13%. For the same molecule, the “percentage of RBCs infected with chloroquine-resistant P. falciparum” value in experiment [3] (Example 2, 48 hrs or 96 hrs after treatment) was “significantly higher level of RBCs being infected”. Moreover, the “yeast growth (FIG. 7)” value in [4] and in experiment [5] was “Neither chloroquine (Clq) nor atrazine affected growth” throughout. Further, the “in vivo percentage of RBCs infected with P. berghi compared to non-treated controls (FIG. 6)” value with Plasmodium berghi is given as “disease dramatically reduced”. Moreover, the “Parasitemia Day 4” value with P. berghei (ethanol control 24%) came to 5.8%. In addition, in the experiment with P. berghei (ethanol control 42%), the “Parasitemia Day 11” value is reported as 11%.
Regarding `CCNc1nc(Cl)nc(NC(C)(C)C#N)n1` [cyanazine, 2-[[4-chloro-6-(ethylamino)-s-triazin-2-yl]amino]-2-methyl propionitrile], the results for the “Red Blood Cell Infection Rate” value in experiment [1] (setting [8]), in [1] (setting [9]) and in experiment [1] (setting [10]) were 18%, 17% and 16%, respectively. Also, the “effectiveness compared with chloroquine” value in [1] (48 hrs of treatment) is given as “less effective”.
As for `OC(c1cc(C(F)(F)F)nc2c(C(F)(F)F)cccc12)C1CCCCN1` (centres unmarked) [mefloquine, reference compound], in experiment [6] (Example 3, 48 hrs or 96 hrs after treatment), the “percentage of RBCs infected with mefloquine-resistant P. falciparum” value is “significantly higher level of RBCs being infected”.
`CC(C)Nc1nc(Cl)nc(NC(C)C)n1` [propazine, 2-chloro-4,6-di(isopropylamino)-s-triazine]: the “Red Blood Cell Infection Rate” value in experiment [1] (setting [8]) is 5%; in experiment [1] (setting [9]), 1%; in experiment [1] (setting [10]) it was 1%. Moreover, the “effectiveness compared with chloroquine” value in [1] (48 hrs of treatment) is on record as “substantially similar in effectiveness as chloroquine”.
Regarding `CCNc1nc(Cl)nc(NCC)n1` [simazine, 2-chloro-4,6-di(ethylamino)-s-triazine], the “Red Blood Cell Infection Rate” value is 3% in [1] (setting [8]), 0% in experiment [1] (setting [9]) and 0% in experiment [1] (setting [10]). Besides, the “effectiveness compared with chloroquine” value in [1] (48 hrs of treatment) is on record as “substantially similar in effectiveness as chloroquine”.
On to `c1ncncn1` [triazine], for which the “percentage of RBCs infected with antifolate-resistant P. falciparum” value in [7] is on record as “significantly higher level of RBCs being infected”.

The values are drawn from patent US20030109529A1, “Use of s-triazines for treating Apicomplexan parasitic infections” (priority 1999, published 2003).
